# Where “and” joins values, the source holds several entries; their conditions need not be identical. Equal values may be shown once.
# Assays:
# [1] = Wet ball milling: particle size and soluble fraction; type: physicochemical; conditions: aqueous with cosolvent or surfactant or cyclodextrin, thermodynamic from solid
# Method: The effect of wet ball milling on Compound 1 particles size and solubility in Kolliphor® EL, Kolliphor® RH40, and tyloxopol s was assessed. […] Kolliphor® RH 40 appeared to be best wetting agent, with Kolliphor® EL also performing well.
# [2] = Solubility of Compound 1 in different excipients; type: physicochemical
# Method: The solubility of Compound 1 in different excipients was assessed.
# [3] = Stability of Compound 1 on sterilization (steam, gamma irradiation); type: physicochemical
# Method: The stability of Compound 1 when sterilized by steam (autoclaving) was assessed. […] Gamma irradiation was then assessed as an alternative sterilization technique. Samples of Compound 1 were irradiated with 10-20 kGy or 20-30 kGy of gamma irradiation.
# rat meibum = experiment: In vivo measurement of lowered meibum melting temperature; design: species or system Sprague Dawley rats; conditions: rats
# Method: The lowering of rat meibum melting temperature by Compound 1 was measured in naive Sprague Dawley rats. The test animals were administered either vehicle, or a suspension of 1% of Compound 1, as eye drops twice a day for fourteen days. The rat meibum was collected after administration of the compounds and analyzed by differential scanning calorimetry to measure the melting point. The lowering of meibum melting point in rats administered Compound 1 was compared to the vehicle.
# Melting properties of meibum were obtained using differential scanning calorimetry thermograms, recorded on a TA Discovery Q5000 (ThermoAnalytical). Samples were sealed in standard 40 μl aluminum pans and subjected to a heat-cool-heat cycle with melting temperatures being recorded on the second heating ramp. The samples were first heated to 150° C. at 30K/min then cooled −30° C. at 30K/min. Next, the sample was heated to 75° C. with an underlying heating rate of 2K/min, a period of modulation of 60 seconds and a temperature amplitude of modulation of 1° C. Dry N2 gas, at a flow rate of 50 mL/min was used to purge the DSC equipment during the measurement. Onset of melting and peak temperatures were recorded with peak temperature quoted as the melting point.
# Results from the assay are shown Table 3 and in FIG. 4. Results were analyzed using an unpaired t test with Welch's correction.
# [4] = Solubility of Compound 1 in aqueous buffers; type: physicochemical
# Description: 3-((3-(4-(2-(isobutylsulfonyl)phenoxy)-3-(trifluoromethyl)phenyl)-1,2,4-oxadiazol-5-yl)methyl)-5,5-dimethyl-1-(2-morpholinoethyl)imidazolidine-2,4-dione (“Compound 1”) is an LXR agonist having biological activity that makes the compound useful for treating ocular diseases such as MGD (see, e.g., Example 3). However, its physical properties make formulating Compound 1 for therapeutic use (e.g., in human subjects) difficult. Compound 1 is poorly water soluble, making it difficult to formulate compositions of Compound 1 with desired concentrations of Compound 1 for therapeutic use. […] Moreover, Compound 1 has a melting temperature of only 118° C., which makes heat sterilization of Compound 1 difficult. In spite of these challenges, formulations of Compound 1 which can be used, for example, in the treatment of ocular diseases and disorders such as dry eye disease and MGD, have been developed.
# [5] = Stability of Compound 1 in different excipients, 3 months; type: physicochemical; conditions: for HPLC (% Remaining): initial purity 99.19%
# Method: The stability of Compound 1 in different excipients was assessed.
# [6] = 0.5% Kolliphor ® EL/0.5% Carbopol ® 974P, 5° C.
# [7] = 0.5% Kolliphor ® EL/0.5% Carbopol ® 974P, 25° C.
# [8] = 0.5% Kolliphor ® EL/0.5% Carbopol ® 974P, 40° C.
# [9] = 0.5% Kolliphor ® EL/0.5% HEC, 5° C.
# [10] = 0.5% Kolliphor ® EL/0.5% HEC, 25° C.
# [11] = 0.5% Kolliphor ® EL/0.5% HEC, 40° C.
# [12] = 0.5% Kolliphor ® RH40/0.5% Carbopol ® 974P, 5° C.
# [13] = 0.5% Kolliphor ® RH40/0.5% Carbopol ® 974P, 25° C.
# [14] = 0.5% Kolliphor ® RH40/0.5% Carbopol ® 974P, 40° C.
# [15] = 0.5% Kolliphor ® RH40/0.5% HEC, 5° C.
# [16] = 0.5% Kolliphor ® RH40/0.5% HEC, 25° C.
# [17] = 0.5% Kolliphor ® RH40/0.5% HEC, 40° C.
compound,measurement,setting,value
"CC(C)CS(=O)(=O)c1ccccc1Oc1ccc(-c2noc(CN3C(=O)N(CCN4CCOCC4)C(C)(C)C3=O)n2)cc1C(F)(F)F [Compound 1, 3-((3-(4-(2-(isobutylsulfonyl)phenoxy)-3-(trifluoromethyl)phenyl)-1,2,4-oxadiazol-5-yl)methyl)-5,5-dimethyl-1-(2-morpholinoethyl)imidazolidine-2,4-dione]",solubility at 24 h,"[1]; 0.25% Tyloxapol @ 24 hr, 3 mm beads",15 µg/mL
same,solubility at 24 h,"[1]; 0.5% Tyloxapol @ 24 hr, 3 mm beads",76 µg/mL
same,solubility at 24 h,"[1]; 1% Kolliphor ® EL @ 24 hr, 3 mm beads",270 µg/mL
same,solubility at 24 h,"[1]; 1% Kolliphor ® RH-40 @ 24 hr, 3 mm beads",344 µg/mL
same,solubility at 24 h,"[1]; 2% Kolliphor ® EL @ 24 hr, 3 mm beads",528 µg/mL
same,solubility at 24 h,"[1]; 2% Kolliphor ® RH40, @ 24 hr, 1 mm beads",650 µg/mL
same,solubility at 24 h,"[1]; 2% Kolliphor ® RH-40 @ 24 hr, 3 mm beads",669 µg/mL
same,solubility at 24 h,"[1]; 4% Kolliphor ® RH40 @ 24 hr, 1 mm beads",1200 µg/mL
same,Physical form,[2]; 0.5% Tween ® 80 pH 7,"No change, Form A"
same,Physical form,[2]; 0.5% Tyloxapol pH 7,"No change, Form A"
same,Physical form,[2]; 5% HP-β-CD pH 5,"No change, Form A"
same,Physical form,[2]; 5% HP-β-CD pH 6,"No change, Form A"
same,Physical form,[2]; 5% HP-β-CD pH 7,"No change, Form A"
same,Physical form,[2]; 5% HP-γ-CD pH 7,"No change, Form A"
same,Physical form,[2]; 5% Kolliphor ® EL pH 5,"No change, Form A"
same,Physical form,[2]; 5% Kolliphor ® EL pH 6,"No change, Form A"
same,Physical form,[2]; 5% Kolliphor ® EL pH 7,"No change, Form A"
same,Physical form,[2]; 5% PEG400 pH 7,"No change, Form A"
same,Physical form,[2]; 5% PVP pH 7,"No change, Form A"
same,Compound 1 solubility,"[2]; 5% Polyvinylpyrrolidone (PVP) pH 7, measured pH 6.97",<LOQ
same,Physical form,[2]; 10% transcutol pH 7,"No change, Form A"
same,Compound 1 solubility,"[2]; 10% transcutol pH 7, measured pH 6.99",<LOQ
same,solubility,"[2]; aqueous with cosolvent or surfactant or cyclodextrin, thermodynamic from solid, 0.5% Tween ® 80 pH 7, measured pH 7.1",78 µg/mL
same,solubility,"[2]; aqueous with cosolvent or surfactant or cyclodextrin, thermodynamic from solid, 0.5% Tyloxapol pH 7",34 µg/mL
same,solubility,"[2]; aqueous with cosolvent or surfactant or cyclodextrin, thermodynamic from solid, 5% HP-β-CD pH 5, measured pH 5.28",180 µg/mL
same,solubility,"[2]; aqueous with cosolvent or surfactant or cyclodextrin, thermodynamic from solid, 5% HP-β-CD pH 6, measured pH 6.13",70 µg/mL
same,solubility,"[2]; aqueous with cosolvent or surfactant or cyclodextrin, thermodynamic from solid, 5% HP-β-CD pH 7, measured pH 7.03",50 µg/mL
same,solubility,"[2]; aqueous with cosolvent or surfactant or cyclodextrin, thermodynamic from solid, 5% HP-γ-CD pH 7, measured pH 6.9",225 µg/mL
same,solubility,"[2]; aqueous with cosolvent or surfactant or cyclodextrin, 5% Kolliphor ® EL pH 5, measured pH 5.34",1010 µg/mL
same,solubility,"[2]; aqueous with cosolvent or surfactant or cyclodextrin, 5% Kolliphor ® EL pH 6, measured pH 6.16",740 µg/mL
same,solubility,"[2]; aqueous with cosolvent or surfactant or cyclodextrin, 5% Kolliphor ® EL pH 7, measured pH 7.01",690 µg/mL
same,solubility,"[2]; aqueous with cosolvent or surfactant or cyclodextrin, 5% Kolliphor ® RH40, measured pH 6.91",443 µg/mL
same,solubility,"[2]; pH 7.1, aqueous with cosolvent or surfactant or cyclodextrin, 5% PEG400 pH 7, measured pH 7.10",3 µg/mL
same,HPLC Assay (% Remaining) Average,"[3]; 10-20 kGy, samples 7-9",98.23 ± 0.01%
same,HPLC Assay (% Remaining) Average,"[3]; 20-30 kGy, samples 10-12",98.14 ± 0.03%
same,degradation of Compound 1 by HPLC,"[3]; gamma irradiated, 10-20 kGy or 20-30 kGy",less than 0.5%
same,Appearance,[3]; gamma irradiation 10-20 kGy,White powder
same,HPLC Assay (% Remaining),[3]; gamma irradiation 10-20 kGy,98.23% and 98.24% and 98.22%
same,XRPD (2-Theta),[3]; gamma irradiation 10-20 kGy,Form A
same,Appearance,[3]; gamma irradiation 20-30 kGy,White powder
same,HPLC Assay (% Remaining),[3]; gamma irradiation 20-30 kGy,98.17% and 98.13% and 98.11%
same,XRPD (2-Theta),[3]; gamma irradiation 20-30 kGy,Form A
same,Appearance,[3]; non-irradiated control,White powder
same,HPLC Assay (% Remaining),[3]; non-irradiated control,98.51% and 98.48% and 98.44% and 98.46% and 98.49% and 98.50%
same,XRPD (2-Theta),[3]; non-irradiated control,Form A
same,HPLC Assay (% Remaining) Average,"[3]; non-irradiated control, samples 1-6",98.48 ± 0.03%
same,degradation on steam sterilization,"[3]; steam (autoclaving), data not shown",Significant degradation
same,Mean ± SEM meibum melting temperature,"rat meibum; 1% suspension eye drops twice a day for fourteen days, DSC peak temperature, in °C",28.08 ± 0.2945
same,Change of Tm,"rat meibum; versus vehicle, 1% suspension twice a day, fourteen days, P value <0.0001",−2.181 ± 0.3731
same,solubility,"[4]; 10 mM acetate buffer, aqueous buffer, 10 mM acetate, pH 4, read-out: solubility",25 µg/mL
same,solubility,"[4]; 10 mM acetate buffer, aqueous buffer, 10 mM acetate, pH 5, read-out: solubility",1 µg/mL
same,solubility,[4]; 10 mM phosphate buffer at pH 7,limit of quantification
same,XRPD (2-Theta),"[5]; 0.5% Carbopol ® 974P, 5° C.",Form
same,HPLC (% Remaining),"[5]; 0.5% Carbopol ® 974P, 5° C.",99.19%
same,XRPD (2-Theta),"[5]; 0.5% Carbopol ® 974P, 25° C.",Form
same,HPLC (% Remaining),"[5]; 0.5% Carbopol ® 974P, 25° C.",99.16%
same,XRPD (2-Theta),"[5]; 0.5% Carbopol ® 974P, 40° C.",Form
same,HPLC (% Remaining),"[5]; 0.5% Carbopol ® 974P, 40° C.",99.14%
same,XRPD (2-Theta),"[5]; 0.5% HEC, 5° C.",Form
same,HPLC (% Remaining),"[5]; 0.5% HEC, 5° C.",99.18%
same,XRPD (2-Theta),"[5]; 0.5% HEC, 25° C.",Form
same,HPLC (% Remaining),"[5]; 0.5% HEC, 25° C.",99.20%
same,XRPD (2-Theta),"[5]; 0.5% HEC, 40° C.",Form
same,HPLC (% Remaining),"[5]; 0.5% HEC, 40° C.",99.17%
same,XRPD (2-Theta),"[5]; 0.5% Kolliphor ® EL, 5° C.",Form
same,HPLC (% Remaining),"[5]; 0.5% Kolliphor ® EL, 5° C.",99.18%
same,XRPD (2-Theta),"[5]; 0.5% Kolliphor ® EL, 25° C.",Form
same,HPLC (% Remaining),"[5]; 0.5% Kolliphor ® EL, 25° C.",99.18%
same,XRPD (2-Theta),"[5]; 0.5% Kolliphor ® EL, 40° C.",Form
same,HPLC (% Remaining),"[5]; 0.5% Kolliphor ® EL, 40° C.",99.00%
same,XRPD (2-Theta),[5]; [6],Form
same,HPLC (% Remaining),[5]; [6],99.18%
same,XRPD (2-Theta),[5]; [7],Form
same,HPLC (% Remaining),[5]; [7],99.02%
same,XRPD (2-Theta),[5]; [8],Form
same,HPLC (% Remaining),[5]; [8],97.89%
same,XRPD (2-Theta),[5]; [9],Form
same,HPLC (% Remaining),[5]; [9],99.19%
same,XRPD (2-Theta),[5]; [10],Form
same,HPLC (% Remaining),[5]; [10],99.02%
same,XRPD (2-Theta),[5]; [11],Form
same,HPLC (% Remaining),[5]; [11],98.94%
same,XRPD (2-Theta),"[5]; 0.5% Kolliphor ® RH40, 5° C.",Form
same,HPLC (% Remaining),"[5]; 0.5% Kolliphor ® RH40, 5° C.",99.18%
same,XRPD (2-Theta),"[5]; 0.5% Kolliphor ® RH40, 25° C.",Form
same,HPLC (% Remaining),"[5]; 0.5% Kolliphor ® RH40, 25° C.",99.18%
same,XRPD (2-Theta),"[5]; 0.5% Kolliphor ® RH40, 40° C.",Form
same,HPLC (% Remaining),"[5]; 0.5% Kolliphor ® RH40, 40° C.",99.17%
same,XRPD (2-Theta),[5]; [12],Form
same,HPLC (% Remaining),[5]; [12],99.18%
same,XRPD (2-Theta),[5]; [13],Form
same,HPLC (% Remaining),[5]; [13],99.17%
same,XRPD (2-Theta),[5]; [14],Form
same,HPLC (% Remaining),[5]; [14],98.87%
same,XRPD (2-Theta),[5]; [15],Form
same,HPLC (% Remaining),[5]; [15],99.19%
same,XRPD (2-Theta),[5]; [16],Form
same,HPLC (% Remaining),[5]; [16],99.18%
same,XRPD (2-Theta),[5]; [17],Form
same,HPLC (% Remaining),[5]; [17],99.18%
